Data taken from ChEMBL document CHEMBL5053557, “Discovery of Novel Dual-Target Inhibitor of Bromodomain-Containing Protein 4/Casein Kinase 2 Inducing Apoptosis and Autophagy-Associated Cell Death for Triple-Negative Breast Cancer Therapy” (J Med Chem, 2021).

Columns and labels:
MDA-MB-468 = experiment: Antiproliferative activity against human MDA-MB-468 cells incubated for 24 hrs by MTT assay; type: functional, cell-based; conditions: MDA-MB-468, 24 h
MDA-MB-231 = experiment: cells; conditions: Homo sapiens, MDA-MB-231, 24 h

| Structure (SMILES) | IC50 (MDA-MB-468) [µM] | IC50 (MDA-MB-231) [µM] |
| --- | --- | --- |
| COc1cccc(-c2cc(=O)c3cc(OC)ccc3o2)c1 [6,3'-DIMETHOXYFLAVONE] | > 50 | > 50 |
| COc1cc(OC)c2c(=O)[nH]c(-c3ccccc3OCC(=O)O)nc2c1 | 18.6 | 36.7 |
| COc1cc(OC)c2c(=O)[nH]c(-c3ccc(OCC(=O)Nc4ccc(N5CCCC5)cc4)cc3)nc2c1 | 7.82 | 19.6 |
| CN1CCN(c2ccc(NC(=O)COc3ccc(-c4nc5ccc(Cl)cc5c(=O)[nH]4)cc3)cc2Cl)CC1 | 6.23 | 5.21 |
| COc1cc(OC)c2c(=O)[nH]c(-c3ccc(OCC(=O)Nc4ccc(N5CCOCC5)cc4)cc3)nc2c1 | 9.54 | 7.67 |
| COc1cc(OC)c2c(=O)[nH]c(-c3cc(C)c(OCC(=O)Nc4ccc(N5CCOCC5)cc4)c(C)c3)nc2c1 | 9.49 | 8.23 |
| COc1cc(-c2nc3ccccc3c(=O)[nH]2)cc(OC)c1O | > 50 | > 50 |
| COc1cc(OC)c2c(=O)[nH]c(-c3cc(Br)c(OCC(=O)Nc4ccc(N5CCN(C)CC5)cc4)c(Br)c3)nc2c1 | 15.8 | 13.6 |
| COc1cc(OC)c2c(=O)[nH]c(-c3cc(C)c(OCC(=O)Nc4ccc(N5CCN(C)CC5)c(F)c4)c(C)c3)nc2c1 | 8.33 | 5.72 |
| COc1cc(OC)c2c(=O)[nH]c(-c3ccc(OCC(=O)NC4CCN(C(=O)OC(C)(C)C)CC4)cc3)nc2c1 | 16.6 | 13.1 |
| COc1cc(OC)c2c(=O)[nH]c(-c3cc(C)c(OCC(=O)Nc4ccc(N5CCN(C)CC5)cc4)c(C)c3)nc2c1 | 12.6 | 10.8 |
| COc1cc(OC)c2c(=O)[nH]c(-c3ccc(OCC(=O)Nc4ccc(N5CCOCC5)c(Cl)c4)cc3)nc2c1 | 8.29 | 4.52 |
| COc1cc(OC)c2c(=O)[nH]c(-c3ccc(OCC(=O)O)cc3)nc2c1 | 18.6 | 19.7 |
| CN1CCN(c2ccc(NC(=O)COc3ccc(-c4nc5cc(Cl)ccc5c(=O)[nH]4)cc3)cc2Cl)CC1 | 15.3 | 14.4 |
| COc1cc(OC)c2c(=O)[nH]c(-c3ccc(OCC(=O)Nc4ccc(N5CCOCC5)c(F)c4)cc3)nc2c1 | 8.58 | 7.09 |
| COc1cc(OC)c2c(=O)[nH]c(-c3cccc(C)c3)nc2c1 | 39.4 | 43.9 |
| O=c1cc(-c2ccccc2)oc2ccc(Br)cc12 [6-BROMOFLAVONE] | 48.2 | 33.5 |
| COc1cc(OC)c2c(=O)[nH]c(-c3cc(C)c(OCC(=O)Nc4ccc(N5CCOCC5)c(Cl)c4)c(C)c3)nc2c1 | 6.31 | 10.2 |
| COc1cc(OC)c2c(=O)[nH]c(-c3ccc(OCC(=O)Nc4cccc(N5CCN(C)CC5)c4)cc3)nc2c1 | 8.07 | 13.2 |
| COc1cc(OC)c2c(=O)[nH]c(-c3cc(C)c(OCC(=O)Nc4nc5ccccc5[nH]4)c(C)c3)nc2c1 | 30.3 | > 50 |
| COc1cc(OC)c2c(=O)[nH]c(-c3cc(C)c(OCC(=O)Nc4ccc(N5CCOCC5)c(F)c4)c(C)c3)nc2c1 | 9.16 | 10.3 |

| Structure (SMILES) | IC50 (MDA-MB-468) [µM] | IC50 (MDA-MB-231) [µM] |
| --- | --- | --- |
| COc1cc(OC)c2c(=O)[nH]c(-c3ccc(OCC(=O)NCC4CCOCC4)cc3)nc2c1 | 26.6 | 21.2 |
| COc1cc(OC)c2c(=O)[nH]c(-c3ccc(OCC(=O)Nc4cc(OC)c(OC)c(OC)c4)cc3)nc2c1 | 15 | 23.4 |
| COc1cc(OC)c2c(=O)[nH]c(-c3ccc(OCC(=O)Nc4ccc(N5CCN(C)CC5)cc4)cc3)nc2c1 | 8.8 | 6.46 |
| COc1cccc(-c2cc(=S)c3cc(OC)ccc3o2)c1 | > 50 | > 50 |
| COc1cc(OC)c2c(=O)[nH]c(-c3ccccc3OC)nc2c1 | 44.6 | > 50 |
| COc1cc(OC)c2c(=O)[nH]c(-c3cc(C)c(OCC(=O)NC4CCN(C(=O)OC(C)(C)C)CC4)c(C)c3)nc2c1 | 17.2 | 22.4 |
| COc1cc(OC)c2c(=O)[nH]c(-c3ccc(O)c(Br)c3)nc2c1 | 22.3 | 23.2 |
| COc1cc(OC)c2c(=O)[nH]c(-c3ccc(C(=O)O)cc3)nc2c1 | 8.33 | 21.1 |
| COc1cc(OC)c2c(=O)cc(-c3cc(C)cc(C)c3)oc2c1 | 39.6 | 47.8 |
| COc1ccc2oc(-c3ccccc3)cc(=S)c2c1 | > 50 | > 50 |
| COc1cc(OC)c2c(=O)[nH]c(-c3ccc(C)cc3)nc2c1 | 38.4 | 45.6 |
| COc1cc(OC)c2c(=O)[nH]c(-c3ccc(NC(C)=O)cc3)nc2c1 | 24.7 | 27.3 |
| COc1cc(OC)c2c(=O)[nH]c(-c3cc(C)c(O)c(C)c3)nc2c1 | 19.3 | 17.5 |
| COc1cc(OC)c2c(=O)[nH]c(-c3cc(C)c(OCC(=O)Nc4cc(OC)c(OC)c(OC)c4)c(C)c3)nc2c1 | 16.6 | 24.4 |
| COc1cc(OC)c2c(=O)[nH]c(-c3cc(C)c(Br)c(C)c3)nc2c1 | 29.6 | 25.2 |
| COc1cc(OC)c2c(=O)[nH]c(-c3ccc(N)cc3)nc2c1 | > 50 | 36.5 |
| COc1cc(OC)c2c(=O)[nH]c(-c3cc(Br)c(OCC(=O)Nc4ccc(N5CCCCC5)cc4)c(Br)c3)nc2c1 | 15.6 | 16.4 |
| COc1cc(OC)c2c(=O)[nH]c(-c3ccc(OCC(=O)Nc4ccc(N5CCCCC5)cc4)cc3)nc2c1 | 11.6 | 10.3 |
| COc1cc(OC)c2c(=O)[nH]c(-c3cc(Br)c(OCC(=O)NC4CCN(C)CC4)c(Br)c3)nc2c1 | 14.8 | 16.9 |
| COc1ccc2oc(-c3cc(C)cc(C)c3)cc(=O)c2c1 | > 50 | 45.7 |
| COc1cc(OC)c2c(=O)[nH]c(-c3cc(C)c(OCC(=O)NCC4CCOCC4)c(C)c3)nc2c1 | 25.6 | 23.6 |

| Structure (SMILES) | IC50 (MDA-MB-468) [µM] | IC50 (MDA-MB-231) [µM] |
| --- | --- | --- |
| Cc1ccc(-c2nc3ccccc3c(=O)[nH]2)cc1 | > 50 | > 50 |
| COc1cc(OC)c2c(=S)cc(-c3cc(C)cc(C)c3)oc2c1 | > 50 | > 50 |
| COc1cc(OC)c2c(=O)[nH]c(-c3cccc(OCC(=O)O)c3)nc2c1 | 22.7 | 25.6 |
| COc1cccc(-c2nc3cc(OC)cc(OC)c3c(=O)[nH]2)c1 | 29.3 | 38.3 |
| COc1cc(OC)c2c(=O)[nH]c(-c3cc(C)c(OCC(=O)Nc4cccc(N5CCN(C)CC5)c4)c(C)c3)nc2c1 | 15.7 | 14.6 |
| COc1ccc2nc(-c3cc(OC)c(O)c(OC)c3)[nH]c(=O)c2c1 | 43.3 | > 50 |
| CC(=O)Nc1ccc(-c2nc3ccccc3c(=O)[nH]2)cc1 | > 50 | > 50 |
| COc1ccc2nc(-c3ccc(C)cc3)[nH]c(=O)c2c1 | 30.4 | > 50 |
| COc1cc(OC)c2c(=O)[nH]c(-c3ccc(OCC(=O)Nc4ccc(N5CCN(C)CC5)c(F)c4)cc3)nc2c1 | 7.55 | 6.3 |
| COc1cc(OC)c2c(=O)[nH]c(-c3cc(C)c(OCC(=O)Nc4cccc(N5CCOCC5)c4)c(C)c3)nc2c1 | 13.4 | 11.3 |
| COc1cc(OC)c2c(=O)[nH]c(-c3ccc(OCC(=O)Nc4ccccc4N4CCN(C)CC4)cc3)nc2c1 | 11.5 | 17.3 |
| COc1cc(OC)c2c(=O)[nH]c(-c3cc(Br)c(OCC(=O)Nc4ccc(N5CCOCC5)cc4)c(Br)c3)nc2c1 | 15.1 | 13.2 |
| COc1cc(OC)c2c(=O)[nH]c(-c3cc(C)c(OCC(=O)Nc4ccc(N5CCCCC5)cc4)c(C)c3)nc2c1 | 9.43 | 13.4 |
| COc1cc(OC)c2c(=O)[nH]c(-c3cc(C)c(OCC(=O)NC4CCN(C)CC4)c(C)c3)nc2c1 | 15.6 | 17.2 |
| COc1ccc2nc(-c3ccc(NC(C)=O)cc3)[nH]c(=O)c2c1 | 41.2 | > 50 |
| COc1cc(OC)c2c(=O)[nH]c(-c3ccc(OCC(=O)Nc4cccc(N5CCOCC5)c4)cc3)nc2c1 | 17.8 | 15.3 |
| COC(=O)COc1ccc(-c2nc3cc(OC)cc(OC)c3c(=O)[nH]2)cc1 | 13.8 | 22 |
| COc1cc(OC)c2c(=O)[nH]c(-c3cc(Br)c(OCC(=O)Nc4ccc(N5CCOCC5)c(Cl)c4)c(Br)c3)nc2c1 | 5.53 | 4.02 |
| CN1CCN(c2ccc(NC(=O)COc3ccc(-c4nc5cc(F)ccc5c(=O)[nH]4)cc3)cc2Cl)CC1 | 7.51 | 6.94 |
| Cc1ccc2nc(-c3ccc(OCC(=O)Nc4ccc(N5CCN(C)CC5)c(Cl)c4)cc3)[nH]c(=O)c2c1 | 16.2 | 17.4 |
